In brackets after ≈: the same amount, converted by molar mass.
Key:
Trypanosoma cruzi [1] = assay: Antitrypanosomal activity against bioluminescent Trypanosoma cruzi CL Brener trypomastigotes infected in BALB/c mouse assessed as reduction in parasite burden at 100 mg/kg, po administered once daily for 5 days starting from 14 days post infection and measured on 36 days post infection; assay type: functional; parameters: scale not given: the % may be the effect or the level left; settings: time 22 day
Trypanosoma cruzi [2] = assay: Antitrypanosomal activity against Trypanosoma cruzi Tulahuen amastigotes infected in mouse 3T3 cells assessed as inhibition of parasite growth incubated for 48 hrs by […] staining based analysis; assay type: functional, organism-based; settings: for IC90: NIH3T3, time 48 hrs
Trypanosoma cruzi [3] = assay: Antitrypanosomal activity against Trypanosoma cruzi Tulahuen amastigotes infected in mouse 3T3 cells assessed as reduction in parasite growth at Emax concentration incubated for 48 hrs by […] staining based analysis; assay type: functional; parameters: scale not given: the % may be the effect or the level left
[4] = Selectivity index, ratio of CC50 for cytotoxicity against mouse 3T3 cells to IC50 for antitrypanosomal activity against Trypanosoma cruzi Tulahuen amastigotes infected in mouse 3T3 cells; assay type: toxicity, cell-based; settings: read-out: Ratio CC50/IC50
[5] = Cytotoxicity against mouse 3T3 cells; assay type: toxicity, cell-based; settings: NIH3T3 cells
[6] = system: Mycobacterium tuberculosis; assay: Substrate activity at Mycobacterium tuberculosis Ddn expressed in Escherichia coli BL21 (DE3) assessed as oxidation of F420H2 by measuring Kcat/Km by spectrophotometric analysis
[7] = Solubility of compound in water by LC-UV analysis; assay type: physicochemical; settings: water; read-out: solubility
[8] = AUC(0 to 8 hrs) in CD-1 mouse at 20 mg/kg, po administered as DMSO/PEG400 formulation measured upto 24 hrs by LC-MS/MS analysis; assay type: ADME, organism-based; parameters: dose 20 mg/kg, time < 24 hrs, route po; settings: in vivo
[9] = Tmax in CD-1 mouse at 20 mg/kg, po administered as DMSO/PEG400 formulation measured upto 24 hrs by LC-MS/MS analysis; assay type: ADME, organism-based; settings: in vivo
[10] = system: Mycobacterium tuberculosis; assay: Antimycobacterial activity against Mycobacterium tuberculosis infected in BALB/c mouse assessed as log reduction in bacterial load in lung by measuring colony forming unit at 25 mg/kg, po administered 5 days per week for 3 weeks starting from day 10 post infection (reference value: 8.8 x 10^3 CFU); assay type: functional
[11] = Plasma protein binding in human; assay type: ADME, cell-free; settings: read-out: PPB (converted)
[12] = Oral bioavailability in CD-1 mouse at 20 mg/kg administered as DMSO/PEG400 formulation measured upto 24 hrs by LC-MS/MS analysis; assay type: ADME, organism-based; settings: in vivo
[13] = system: Mycobacterium tuberculosis; assay: Substrate activity at Mycobacterium tuberculosis Ddn expressed in Escherichia coli BL21 (DE3) assessed as oxidation of F420H2 by measuring Kcat by spectrophotometric analysis
[14] = Clearance in CD-1 mouse at 5 mg/kg, iv administered as DMSO/PEG400 formulation measured upto 24 hrs by LC-MS/MS analysis; assay type: ADME, organism-based; settings: in vivo
[15] = system: Mycolicibacterium smegmatis; assay: Antimycobacterial activity against Mycobacterium smegmatis mc2155 ATCC 700084 assessed as bacterial growth inhibition incubated for 24 hrs under normoxic condition by resazurin microtiter assay; assay type: functional
[16] = system: Mycobacterium tuberculosis; assay: Antimycobacterial activity against Mycobacterium tuberculosis H37Ra ATCC 25177 assessed as bacterial growth inhibition incubated for 6 days under normoxic condition by resazurin microtiter assay; assay type: functional; settings: H37Ra ATCC 25177, 144 h, time 6 day
[17] = system: Mycobacterium tuberculosis; assay: Substrate activity at Mycobacterium tuberculosis Ddn expressed in Escherichia coli BL21 (DE3) assessed as oxidation of F420H2 by measuring Km by spectrophotometric analysis
[18] = Half life in CD-1 mouse at 5 mg/kg, iv administered as DMSO/PEG400 formulation measured upto 24 hrs by LC-MS/MS analysis; assay type: ADME, organism-based; settings: in vivo
[19] = system: Mycobacterium tuberculosis; assay: (§1) Antimycobacterial activity against Mycobacterium tuberculosis infected in BALB/c mouse assessed as log reduction in bacterial load in lung by measuring colony forming unit at 50 mg/kg, po administered 5 days per week for 3 weeks starting from day 10 post infection (reference value: 8.8 x 10^3 CFU); assay type: functional
[20] = Toxicity in BALB/c mouse infected with Mycobacterium tuberculosis assessed as mortality at 12.5 to 50 mg/kg, po administered 5 days per week for 3 weeks starting from day 10 post infection; assay type: organism-based; settings: in vivo, 504 h, dose 12.5-50 mg/kg
[21] = Toxicity in BALB/c mouse infected with Mycobacterium tuberculosis assessed as body weight loss at 12.5 to 50 mg/kg, po administered 5 days per week for 3 weeks starting from day 10 post infection; assay type: organism-based; settings: in vivo, 120 h, dose 12.5-50 mg/kg, time 5 day
[22] = Volume of distribution at steady state in CD-1 mouse at 5 mg/kg, iv administered as DMSO/PEG400 formulation measured upto 24 hrs by LC-MS/MS analysis; assay type: ADME, organism-based; settings: in vivo, read-out: Vdss
Mycobacterium avium = assay: Antimycobacterial activity against Mycobacterium avium ATCC 25291 assessed as bacterial growth inhibition incubated for 6 days under normoxic condition by resazurin microtiter assay; assay type: functional; settings: ATCC 25291, 144 h, time 6 day
[23] = Cmax in CD-1 mouse at 20 mg/kg, po administered as DMSO/PEG400 formulation measured upto 24 hrs by LC-MS/MS analysis; assay type: ADME, organism-based; parameters: dose 20 mg/kg, time < 24 hrs, route po; settings: in vivo
[24] = system: Mycobacterium tuberculosis; assay: Antimycobacterial activity against Mycobacterium tuberculosis H37Rv ATCC 27294 assessed as bacterial growth inhibition incubated for 5 days under hypoxic condition by resazurin microtiter assay; assay type: functional; settings: H37Rv ATCC 27294, 120 h, time 5 day
[25] = system: Mycobacterium tuberculosis; assay: Antimycobacterial activity against Mycobacterium tuberculosis H37Rv ATCC 27294 assessed as bacterial growth inhibition incubated for 5 days under normoxic condition by resazurin microtiter assay; assay type: functional; settings: H37Rv ATCC 27294, 120 h, time 5 day
[26] = system: Mycobacterium tuberculosis; assay: Antimycobacterial activity against Mycobacterium tuberculosis infected in BALB/c mouse assessed as log reduction in bacterial load in lung by measuring colony forming unit at 12.5 mg/kg, po administered 5 days per week for 3 weeks starting from day 10 post infection (reference value: 8.8 x 10^3 CFU); assay type: functional
[27] = Plasma protein binding in mouse; assay type: ADME, cell-free; settings: read-out: PPB (converted)
[28] = AUC(0 to 24 hrs) in CD-1 mouse at 20 mg/kg, po administered as DMSO/PEG400 formulation measured upto 24 hrs by LC-MS/MS analysis; assay type: ADME, organism-based; parameters: dose 20 mg/kg, time < 24 hrs, route po; settings: in vivo
Trypanosoma cruzi [29] = assay: Antitrypanosomal activity against bioluminescent Trypanosoma cruzi CL Brener trypomastigotes infected in BALB/c mouse assessed as reduction in parasite burden at 50 mg/kg, po administered twice daily for 5 days starting from 14 days post infection and measured on 36 days post infection; assay type: functional; parameters: scale not given: the % may be the effect or the level left; settings: time 22 day
[30] = Half life in CD-1 mouse at 20 mg/kg, po administered as DMSO/PEG400 formulation measured upto 24 hrs by LC-MS/MS analysis; assay type: ADME, organism-based; settings: in vivo
[31] = system: Mycobacterium tuberculosis; assay: as §1, with “at 12.5 to” for “at”; assay type: functional; settings: dose 12.5-50 mg/kg
[32] = Metabolic stability in mouse microsomes assessed as compound remaining measured after 2 hrs; assay type: ADME, Microsome; settings: read-out: Stability
[33] = Stability in mouse plasma assessed as compound remaining measured after 2 hrs; assay type: ADME, cell-free; settings: read-out: Stability
[34] = Stability in human plasma assessed as compound remaining measured after 2 hrs; assay type: ADME, cell-free; settings: read-out: Stability
[35] = Metabolic stability in human microsomes assessed as compound remaining measured after 2 hrs; assay type: ADME, Microsome; settings: read-out: Stability
[36] = Solubility of compound in water at 0.1 M HCl at pH 1 by LC-UV analysis; assay type: physicochemical; settings: 0.1 M HCl in water
[37] = Solubility of compound in water at pH 7 by LC-UV analysis; assay type: physicochemical
[38] = system: Mycobacterium tuberculosis; assay: Antimycobacterial activity against Mycobacterium tuberculosis infected in BALB/c mouse assessed as log reduction in bacterial load in lung by measuring colony forming unit at 15 mg/kg, po administered 5 days per week for 3 weeks starting from day 10 post infection (reference value: 8.8 x 10^3 CFU); assay type: functional

O=C(Cn1ccnc1[N+](=O)[O-])NCc1ccccc1 [BENZNIDAZOLE]
Activity (Trypanosoma cruzi [1]): 99.3%
IC50 (Trypanosoma cruzi [2]; NIH3T3, 48 h): 7.6 µM
IC90 (Trypanosoma cruzi [2]): 28 µM
Activity (Trypanosoma cruzi [3]): 100%
selectivity ratio [4]: > 17
CC50 [5]: > 127 µM

O=c1c2nc([N+](=O)[O-])cn2ccn1Cc1cccc(C(F)(F)F)c1
kcat/Km [6]: 1650 M⁻¹ s⁻¹
solubility [7]: 2.9 µM (≈ 0.981 µg/mL)
AUC(0-t) at 24 h [8]: 20800 ng·h/mL
Tmax [9]: 2.7 h
log(activity) [10]: 1.1
fraction unbound [11]: 0.04
bioavailability [12]: 64%
kcat [13]: 1.6 10^-2/s
clearance [14]: 7.66 mL/min/kg
MIC [15]: > 32 µg/mL
MIC [16]: ≤ 0.016 µg/mL
Km [17]: 9.4 µM
half-life [18]: 1.9 h
log(activity) [19]: 1.7
Activity [20]: Non-Toxic
Activity [21]: Non-Toxic
Vd [22]: 1.2 L/kg
MIC (Mycobacterium avium): > 32 µg/mL
Cmax [23]: 3400 ng/mL
MIC [24]: 0.25 µg/mL (≈ 0.739 µM)
MIC [25]: 0.063 µg/mL (≈ 0.186 µM)
log(activity) [26]: 0.75
fraction unbound [27]: 0.08

O=c1c2nc([N+](=O)[O-])cn2ccn1Cc1ccc(-c2cccnc2)cc1
Tmax [9]: 0.67 h
AUC(0-t) at 24 h [28]: 9260 ng·h/mL
Activity (Trypanosoma cruzi [29]): 99.4%
half-life [30]: 0.77 h
bioavailability [12]: 92%
clearance [14]: 22.9 mL/min/kg
half-life [18]: 1.5 h
Vd [22]: 2.6 L/kg
Cmax [23]: 4500 ng/mL

O=c1c2nc([N+](=O)[O-])cn2ccn1Cc1ccc(OC(F)(F)F)cc1
solubility [7]: < 1 µM
log(activity) [31]: 0.21
Tmax [9]: 5.3 h
IC90 (Trypanosoma cruzi [2]): 0.72 µM
AUC(0-t) at 24 h [28]: 38900 ng·h/mL
remaining at 2 h [32]: > 99%
half-life [30]: 4.8 h
remaining at 2 h [33]: > 99%
fraction unbound [11]: < 0.01
remaining at 2 h [34]: 98%
remaining at 2 h [35]: > 99%
bioavailability [12]: 98%
clearance [14]: 6.36 mL/min/kg
MIC [15]: > 32 µg/mL
MIC [16]: 0.031 µg/mL (≈ 0.0875 µM)
Activity (Trypanosoma cruzi [3]): 100%
half-life [18]: 3.8 h
Activity [20]: Non-Toxic
Activity [21]: Non-Toxic
Vd [22]: 2.2 L/kg
solubility [36]: < 1 µM
MIC (Mycobacterium avium): > 32 µg/mL
Cmax [23]: 3300 ng/mL
solubility [37]: < 1 µM
CC50 [5]: > 73 µM
fraction unbound [27]: < 0.01

CO[C@H]1/C=C/O[C@@]2(C)Oc3c(C)c(O)c4c(O)c(c(/C=N/N5CCN(C)CC5)c(O)c4c3C2=O)NC(=O)/C(C)=C\C=C\[C@H](C)[C@H](O)[C@@H](C)[C@@H](O)[C@@H](C)[C@H](OC(C)=O)[C@@H]1C [RIFAMPIN]
MIC [15]: 4 µg/mL (≈ 4.86 µM)
MIC [16]: < 0.016 µg/mL
log(activity) [38]: 2.7
MIC (Mycobacterium avium): 4 µg/mL (≈ 4.86 µM)
MIC [24]: 0.08 µg/mL (≈ 0.0972 µM)
MIC [25]: 0.005 µg/mL (≈ 0.00608 µM)
